Test systems include NCI-H460; K562; DU-145; HCT-15; HT-29; HOP-62; Hs-578T; SK-MEL-5; NCI-H23; 786-0; HCC 2998; CAKI-1; SF-539; TK-10; M14; CCRF-CEM; HOP-92; KM12; OVCAR-3; A498.
Assay in all cases: DTP human tumour cell line panel, 48 h

Molecules are shown by their SMILES.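 Cultured in 96-well plates, cells were exposed to test compound for 48 hours across five concentrations. GI50: concentration for 50% inhibition of growth.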 Active and inactive are the calls of the source. No stated cut-off is given here; in the data, active = GI50 up to about 1.1 µM and inactive = higher. Where a SMILES comes first, the peptide text is derived from it. The star is where a group is joined. Fmoc = O=C(OCC1c2ccccc2-c2ccccc21)*; Boc = CC(C)(C)OC(=O)*

A word on the GI50: it is the concentration giving 50% growth inhibition. As to `Clc1ccc(Cc2nc3ccccc3nc2-c2cccc(Br)c2)cc1`, the GI50 in the test with NCI-H460 was 18.3 µM (inactive); in the test on K562, 2.8 µM (inactive); with DU-145 it was 10.7 µM (inactive); with HCT-15 it was 1.41 µM; in the test with HT-29 it was 2.5 µM (inactive); in the test with HOP-62, 17.9 µM (inactive). The GI50 with Hs-578T is 1.69 µM (inactive); with SK-MEL-5, 13.9 µM (inactive); in the test with NCI-H23, 13.5 µM (inactive); in the test with 786-0 it was 1.75 µM (inactive); in the test on HCC 2998 it was 1.62 µM (inactive); in the test on CAKI-1, 2.22 µM (inactive). The GI50 with SF-539 is 2.26 µM (inactive); in the test on TK-10, 13.7 µM (inactive); in the test on M14 it was 2.32 µM (inactive); in the test on CCRF-CEM, 1.07 µM (active); in the test on HOP-92, 0.243 µM (active); in the test on KM12 it was 8.59 µM (inactive). Moreover, the GI50 with OVCAR-3 is 2.33 µM (inactive).
On to `CN(C)CCOc1ccc(-c2c(Oc3ccccc3)c(=O)oc3ccccc23)cc1`, for which the GI50 is 13.5 µM (inactive) in the test on NCI-H460; 2.39 µM (inactive) in the test on K562; 13.8 µM (inactive) with DU-145; 10.3 µM in the test with HCT-15; 12.5 µM (inactive) in the test on HT-29; 13.4 µM (inactive) in the test on A498. The GI50 with Hs-578T was 17.8 µM (inactive); in the test with SK-MEL-5 it was 3.78 µM (inactive); in the test with NCI-H23, 14.1 µM (inactive); in the test on 786-0, 8.39 µM (inactive); with HCC 2998, 6.62 µM (inactive); in the test with CAKI-1, 22.3 µM (inactive). Moreover, the GI50 with SF-539 was 14.1 µM (inactive); in the test with TK-10 it was 13.6 µM (inactive); with M14 it was 2.23 µM (inactive); in the test with CCRF-CEM, 0.459 µM (active); in the test with HOP-92, 17.2 µM (inactive); in the test on KM12 it was 21.4 µM (inactive). The GI50 in the test on OVCAR-3 was 12.4 µM (inactive).
Take `O=C1CCC(=O)N1n1c(Cc2ccc(Cl)cc2)n[nH]c1=O`: the GI50 is > 100 µM (inactive) in the test with NCI-H460; > 100 µM (inactive) in the test on K562; > 100 µM (inactive) in the test with DU-145; greater than 100 µM in the test with HCT-15; > 100 µM (inactive) in the test with HT-29; > 100 µM (inactive) in the test on A498. Moreover, the GI50 in the test on Hs-578T, in the test on SK-MEL-5, with NCI-H23, in the test with 786-0, with HCC 2998 and in the test with CAKI-1 was > 100 µM (inactive) throughout. Further, the GI50 with SF-539, in the test on TK-10, in the test on M14, with HOP-92, in the test with KM12 and with OVCAR-3 was > 100 µM (inactive) each time.
Take `O=C(CC(C(=O)c1cccs1)c1ccsc1)c1ccco1` (stereo unspecified): the GI50 was 24.2 µM (inactive) in the test with NCI-H460; 31 µM (inactive) with DU-145; 21.5 µM in the test with HCT-15; 4.8 µM (inactive) in the test with HT-29; 27.5 µM (inactive) in the test on A498; 64.1 µM (inactive) with HOP-62. The GI50 with Hs-578T is 19.1 µM (inactive); with SK-MEL-5 it was 27.7 µM (inactive); in the test with NCI-H23, 19.5 µM (inactive); in the test with 786-0, 33.7 µM (inactive); with HCC 2998 it was 36 µM (inactive); in the test with CAKI-1, 29.1 µM (inactive). Besides, the GI50 in the test with SF-539 is 27.5 µM (inactive); in the test with TK-10, 32.4 µM (inactive); with M14 it was 19.4 µM (inactive); with CCRF-CEM, 19.1 µM (inactive); in the test with HOP-92, > 100 µM (inactive); with KM12, 22.7 µM (inactive). Also, the GI50 with OVCAR-3 is 54.8 µM (inactive).
In the case of `COC1OC(Cn2c(C)nc(Br)c2Br)C(O)C(O)C1O` (stereo unspecified), the GI50 in the test on NCI-H460 was > 100 µM (inactive); in the test on K562, > 100 µM (inactive); in the test on DU-145, > 100 µM (inactive); in the test with HCT-15, greater than 100 µM; with HT-29, > 100 µM (inactive); in the test with A498, > 100 µM (inactive). Further, the GI50 with HOP-62, with Hs-578T, in the test with SK-MEL-5, with NCI-H23, in the test on 786-0 and in the test on HCC 2998 was > 100 µM (inactive) throughout. Also, the GI50 in the test with CAKI-1, with M14, with CCRF-CEM, in the test with HOP-92, in the test with KM12 and with OVCAR-3 was > 100 µM (inactive) throughout.
Consider `COC(=O)CCN(CCC(=O)OC)C1CC1`, for which the GI50 is > 100 µM (inactive) with NCI-H460; > 100 µM (inactive) in the test on K562; > 100 µM (inactive) in the test with DU-145; greater than 100 µM in the test with HCT-15; > 100 µM (inactive) in the test on HT-29; > 100 µM (inactive) in the test on A498. Also, the GI50 in the test on HOP-62, with Hs-578T, with SK-MEL-5, in the test on NCI-H23, in the test with 786-0 and in the test on HCC 2998 was > 100 µM (inactive) in each case. The GI50 in the test on SF-539 is > 100 µM (inactive); in the test with TK-10 it was > 100 µM (inactive); in the test with M14, > 100 µM (inactive); in the test with CCRF-CEM it was > 100 µM (inactive); with HOP-92, 28.3 µM (inactive); in the test on KM12, > 100 µM (inactive).
As for `COc1ccc2c(c1)C1c3ccccc3CCN1CCC2` (stereo unspecified), the GI50 is 33 µM (inactive) in the test on K562; > 100 µM (inactive) with DU-145; 39.4 µM in the test with HCT-15; 33.3 µM (inactive) in the test with HT-29; 69.3 µM (inactive) in the test on A498; 58.6 µM (inactive) in the test with HOP-62. For the same molecule, the GI50 is 42.9 µM (inactive) in the test on Hs-578T; 29.2 µM (inactive) in the test with SK-MEL-5; 47.9 µM (inactive) in the test on NCI-H23; 42.1 µM (inactive) with 786-0; 23.4 µM (inactive) in the test on HCC 2998; > 100 µM (inactive) in the test on CAKI-1. Moreover, the GI50 is 47.3 µM (inactive) in the test with SF-539; > 100 µM (inactive) in the test on TK-10; 32.1 µM (inactive) with M14; 38.5 µM (inactive) with CCRF-CEM; 70.3 µM (inactive) in the test on HOP-92; 29.4 µM (inactive) with KM12. Further, the GI50 in the test on OVCAR-3 is 73.8 µM (inactive).
In the case of `CC(=O)C(N1CCCCC1)C(O)(C(F)(F)F)C(F)(F)F` (stereo unspecified), the GI50 with NCI-H460 is 89.1 µM (inactive); in the test on K562, 50.4 µM (inactive); with DU-145, > 100 µM (inactive); in the test with HCT-15 it was 79.3 µM; in the test on HT-29, > 100 µM (inactive); in the test on A498, > 100 µM (inactive). Also, the GI50 in the test with Hs-578T was 41.1 µM (inactive); in the test on SK-MEL-5 it was 19.8 µM (inactive); in the test with NCI-H23, 39.5 µM (inactive); with 786-0, > 100 µM (inactive); in the test on HCC 2998, > 100 µM (inactive); in the test on CAKI-1, > 100 µM (inactive). Also, the GI50 is > 100 µM (inactive) in the test on SF-539; > 100 µM (inactive) in the test with TK-10; > 100 µM (inactive) in the test with M14; 37.3 µM (inactive) in the test on CCRF-CEM; 54.3 µM (inactive) in the test on HOP-92; > 100 µM (inactive) with KM12. Moreover, the GI50 in the test with OVCAR-3 was 42.4 µM (inactive).
Turning to `O=C1Nc2nccnc2C(=O)N2CCC[C@@H]12`, the GI50 was > 100 µM (inactive) in the test with NCI-H460; > 100 µM (inactive) in the test on K562; > 100 µM (inactive) in the test with DU-145; greater than 100 µM with HCT-15; > 100 µM (inactive) with HT-29; > 100 µM (inactive) with HOP-62. The GI50 with Hs-578T, in the test on SK-MEL-5, in the test with NCI-H23, in the test on 786-0, with HCC 2998 and in the test with CAKI-1 was > 100 µM (inactive) in each case. The GI50 in the test on SF-539, in the test on TK-10, in the test on M14, in the test with CCRF-CEM, in the test on HOP-92 and in the test with KM12 was > 100 µM (inactive) throughout. Further, the GI50 with OVCAR-3 is > 100 µM (inactive).
Consider `COC(=O)C1(Cc2ccc3c(c2)CCC3)Cc2cc3c(cc2C1)CCC3`, for which the GI50 was 35 µM (inactive) in the test with NCI-H460; 30.5 µM (inactive) in the test with K562; 71.4 µM (inactive) with DU-145; 31.6 µM with HCT-15; 22.5 µM (inactive) in the test on HT-29; 35.2 µM (inactive) with A498. For the same molecule, the GI50 was > 100 µM (inactive) in the test with HOP-62; 65.6 µM (inactive) in the test with Hs-578T; 27 µM (inactive) with SK-MEL-5; 27.3 µM (inactive) in the test on NCI-H23; 51.4 µM (inactive) in the test with 786-0; 27.2 µM (inactive) in the test on HCC 2998. Also, the GI50 in the test on SF-539 is > 100 µM (inactive); in the test with TK-10, > 100 µM (inactive); in the test on M14, 35.2 µM (inactive); in the test with CCRF-CEM, 19.3 µM (inactive); in the test with HOP-92, 25.8 µM (inactive); in the test with KM12, 33.2 µM (inactive). Further, the GI50 in the test with OVCAR-3 is 45.6 µM (inactive).
As for `CC(C)(C)OC(=O)NCCCCC(NC(=O)OCC1c2ccccc2-c2ccccc21)C(=O)N1CCCC1C(=O)NCC(N)=O` (stereo not drawn) (Fmoc-Lys(Boc)-Pro-Gly-NH2; configuration not given here), the GI50 was 20.3 µM (inactive) in the test on NCI-H460; 48.1 µM (inactive) in the test on K562; > 100 µM (inactive) in the test with DU-145; 16.1 µM in the test with HCT-15; 31.3 µM (inactive) with HT-29; 89.1 µM (inactive) in the test on HOP-62. Moreover, the GI50 in the test on Hs-578T was > 100 µM (inactive); in the test on SK-MEL-5 it was 80.4 µM (inactive); in the test on NCI-H23, 94.8 µM (inactive); in the test with 786-0 it was 19.3 µM (inactive); with HCC 2998 it was 58.2 µM (inactive); in the test with CAKI-1, 16.4 µM (inactive). Besides, the GI50 is 88.1 µM (inactive) with SF-539; > 100 µM (inactive) with TK-10; 35.1 µM (inactive) in the test with M14; 76.6 µM (inactive) in the test on CCRF-CEM; 20.4 µM (inactive) in the test on HOP-92; 20.7 µM (inactive) with KM12. The GI50 in the test on OVCAR-3 is 45.1 µM (inactive).

Values taken from ChEMBL document CHEMBL1201862, “PubChem BioAssay data set” (2004).
